In US20080318838A1, “PEPTIDES” (priority 1992, published 2008):
Ends that are not written are not given here.

Assay: biological activity of recombinantly produced (1-38)PTH
Conditions: recombinant product from Gen55-Asn-Gly-Pro-(1-38)PTH fusion
Description: From a non-optimized 20 litre fermentation a 78 g wet cell pellet with 50% expression of the fusion protein is harvested. Following lysis and centrifugation, 18 g of “90% pure” inclusion bodies are obtained. Following the acid stop step and centrifugation/filtration about 470 mg Gly-pro-PTH are detected. After HPLC on C4-Vydac, 355 mg of peptide are detected, decreasing to 321 mg after SP-Sepharose cation-exchange. Enzymatic removal of the Gly and Pro residues is carried out at 2 mg/ml.

hPTH-(1-38)-OH (SVSEIQLMHNLGKHLNSMERVEWLRKKLQDVHNFVALG-OH; UniProt P01270 32-69, looked up, fragment) [(1-38)PTH, natural human PTH fragment 1-38, produced recombinantly from a gp55 fusion protein in E. coli]
biological activity: fully biologically active
